From patent US9708336B2, “Metallo-beta-lactamase inhibitors” (priority 2014, dated 2017) come the findings set out here.

The structures appear in SMILES notation. Read-outs that look alike come from different tables or passages of the source. Where only a bound is given, the exact number is not on record here.

One assay deals with IMP-1 (Serratia marcescens, UniProt P52699). The experiment in a line: biochemical. To be noted: fluorescence assay with CCF2-FA substrate; read-out: IMP-1 IC50. It is filed as biochemical.
Chain of IMP-1 (P52699 whole entry, looked up): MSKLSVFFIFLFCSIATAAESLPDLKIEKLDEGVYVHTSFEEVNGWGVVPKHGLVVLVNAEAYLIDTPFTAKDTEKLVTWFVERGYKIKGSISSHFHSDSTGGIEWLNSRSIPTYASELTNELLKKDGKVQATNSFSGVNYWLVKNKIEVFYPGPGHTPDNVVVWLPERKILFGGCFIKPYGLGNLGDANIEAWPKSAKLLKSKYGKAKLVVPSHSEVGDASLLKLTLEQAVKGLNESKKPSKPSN
The target in the next assay is NDM-1 (Klebsiella pneumoniae, UniProt C7C422). Briefly: biochemical. The settings on record: fluorescence assay with CCF2-FA substrate; read-out: NDM-1 IC50. It is filed as biochemical.
Chain of NDM-1 (C7C422 whole entry, looked up, species assumed): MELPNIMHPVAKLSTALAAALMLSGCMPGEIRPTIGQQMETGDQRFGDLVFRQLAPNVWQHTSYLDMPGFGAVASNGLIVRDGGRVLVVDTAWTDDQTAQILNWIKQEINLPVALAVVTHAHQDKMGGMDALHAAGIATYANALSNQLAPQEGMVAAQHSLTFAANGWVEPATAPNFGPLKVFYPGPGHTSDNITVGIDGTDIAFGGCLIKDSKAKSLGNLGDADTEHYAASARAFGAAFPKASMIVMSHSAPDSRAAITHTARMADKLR
Assay [1] concerns Escherichia coli expressing NDM-1 (CLB30016). The experiment in a line: Antibiotic potentiation activity: synergistic concentration (MITC95) with imipenem, OD600 growth. It counts as cell-based. To be noted: concentration giving 95% inhibition of bacterial growth. The method in brief: (§1)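 Absorbance after a 22–24 h, 35 °C incubation served as the read-out. Wells held bacteria (saline suspension diluted 1:100 into 1.1× CAMHB), imipenem at 4 μg/ml final or optionally 1 μg/ml, and test compound.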

The test system of assay [2] is Serratia marcescens expressing IMP-1 (CL5741). Described as above. It is filed as cell-based. The settings on record: concentration giving 95% inhibition of bacterial growth. The method in brief: as §1
In assay [3] the test system is Klebsiella pneumoniae expressing VIM-1 (IHMA599644). Described as above. The settings on record: concentration giving 95% inhibition of bacterial growth. It counts as cell-based. The method in brief: as §1
A further assay addresses VIM-1 (Pseudomonas aeruginosa (strain ATCC 15692 / DSM 22644 / CIP 104116 / JCM 14847 / LMG 12228 / 1C / PRS 101 / PAO1), UniProt A0A0F7KYQ8). The experiment in a line: Enzyme activity: determination of IC50, fluorescence assay with CCF2-FA substrate (VIM-1). It is filed as biochemical.
The mark [4] stands for this setting: fluorescence assay with CCF2-FA substrate, read-out: VIM-1 IC50.
[5] abbreviates: VIM-1 IC50, fluorescence assay with CCF2-FA substrate.

In the case of `Cc1ccc(Cc2cccc(S(N)(=O)=O)c2-c2nnn[nH]2)cc1` [Example 163, 3-(4-methylbenzyl)-2-(1H-tetrazol-5-yl)benzenesulfonamide], the IC50 (usually the point on the concentration scale where inhibition reaches its midpoint) at IMP-1 turned out to be 0.327 µM; at NDM-1, 0.0177 µM; on VIM-1 (setting [4]), 0.437 µM. In addition, the “Escherichia coli expressing NDM-1 (CLB 30016) MITC95” value in assay [1] was determined as 3.125 µM. Besides, in assay [2], the “Serratia marcescens expressing IMP-1 (CL5741) MITC95” value was determined as 12.5 µM. The “Klebsiella pneumoniae expressing VIM-1 (IHMA 599644) MITC95” value in assay [3] is more than 200 µM.
For the compound `NS(=O)(=O)c1cccc(CCC2CCCCC2)c1-c1nnn[nH]1` [Example 164, 3-(2-cyclohexylethyl)-2-(1H-tetrazol-5-yl)benzenesulfonamide], the IC50 is 0.0055 µM at IMP-1, 0.00293 µM on NDM-1 and 0.0506 µM on VIM-1 (setting [4]). For the same compound, the “Escherichia coli expressing NDM-1 (CLB 30016) MITC95” value in assay [1] was 1.563 µM. Besides, the “Serratia marcescens expressing IMP-1 (CL5741) MITC95” value in assay [2] turned out to be 0.3906 µM. For the same compound, the “Klebsiella pneumoniae expressing VIM-1 (IHMA 599644) MITC95” value in assay [3] worked out at 200 µM.
Take `NS(=O)(=O)c1cccc(-c2cnc3ccccc3c2)c1-c1nnn[nH]1` [Example 165, 3-(quinolin-3-yl)-2-(1H-tetrazol-5-yl)benzenesulfonamide]: the IC50 on IMP-1 was 0.214 µM; on NDM-1 it was 0.00124 µM; at VIM-1 (setting [4]), 0.0116 µM. Besides, the “Escherichia coli expressing NDM-1 (CLB 30016) MITC95” value in assay [1] was determined as 0.5859 µM. In addition, in assay [2], the “Serratia marcescens expressing IMP-1 (CL5741) MITC95” value is 9.375 µM. The “Klebsiella pneumoniae expressing VIM-1 (IHMA 599644) MITC95” value in assay [3] is 37.5 µM.
Take `N#Cc1ccccc1Cc1cccc(S(N)(=O)=O)c1-c1nnn[nH]1` [Example 166, 3-(2-cyanobenzyl)-2-(1H-tetrazol-5-yl)benzenesulfonamide]: the 50% inhibitory concentration (IC50) on IMP-1 amounted to 0.0745 µM; on NDM-1, 0.00689 µM; at VIM-1 (setting [4]) it was 0.0188 µM. The “Escherichia coli expressing NDM-1 (CLB 30016) MITC95” value in assay [1] is 2.344 µM. For the same compound, the “Serratia marcescens expressing IMP-1 (CL5741) MITC95” value in assay [2] is 3.906 µM. In assay [3], the “Klebsiella pneumoniae expressing VIM-1 (IHMA 599644) MITC95” value was determined as 100 µM.
Turning to `CC(C)Cc1cccc(S(N)(=O)=O)c1-c1nn[nH]n1` [Example 167, 3-isobutyl-2-(2H-tetrazol-5-yl)benzenesulfonamide], the IC50 is 0.26 µM at IMP-1, 0.0124 µM at NDM-1 and 1.03 µM on VIM-1 (setting [4]). For the same compound, the “Escherichia coli expressing NDM-1 (CLB 30016) MITC95” value in assay [1] turned out to be 1.563 µM. Besides, the “Serratia marcescens expressing IMP-1 (CL5741) MITC95” value in assay [2] turned out to be 9.375 µM. Also, the “Klebsiella pneumoniae expressing VIM-1 (IHMA 599644) MITC95” value in assay [3] worked out at 200 µM.
In the case of `NC1CCC(c2cccc(S(N)(=O)=O)c2-c2nn[nH]n2)CC1` (stereo not drawn) [Example 168, 3-(4-Aminocyclohexyl)-2-(2H-tetrazol-5-yl)benzenesulfonamide], the figures for the IC50 on IMP-1, on NDM-1 and on VIM-1 (setting [4]) were 0.865 µM, 0.0394 µM and 0.0503 µM, respectively. The “Escherichia coli expressing NDM-1 (CLB 30016) MITC95” value in assay [1] came to 0.25 µM. The “Serratia marcescens expressing IMP-1 (CL5741) MITC95” value in assay [2] was determined as 6.25 µM. Moreover, the “Klebsiella pneumoniae expressing VIM-1 (IHMA 599644) MITC95” value in assay [3] was 2.172 µM.
Regarding `NS(=O)(=O)c1cccc(C2CCC(N3CCNCC3)CC2)c1-c1nn[nH]n1` (stereo not drawn) [Example 170, 3-(4-(piperazin-1-yl)cyclohexyl)-2-(2H-tetrazol-5-yl)benzenesulfonamide], the IC50 at IMP-1 stood at 0.577 µM; at NDM-1 it was 0.0219 µM; on VIM-1 (setting [4]) it was 3.47 µM. In addition, the “Escherichia coli expressing NDM-1 (CLB 30016) MITC95” value in assay [1] is 1.563 µM. In assay [2], the “Serratia marcescens expressing IMP-1 (CL5741) MITC95” value is 9.375 µM. In addition, the “Klebsiella pneumoniae expressing VIM-1 (IHMA 599644) MITC95” value in assay [3] stood at 200 µM.
Regarding `NS(=O)(=O)c1cccc(C2CCC(O)CC2)c1-c1nn[nH]n1` (stereo not drawn) [Example 171, 3-(4-hydroxycyclohexyl)-2-(2H-tetrazol-5-yl)benzenesulfonamide], the IC50 came to 0.119 µM at IMP-1, 0.00856 µM on NDM-1 and 0.128 µM on VIM-1 (setting [4]). For the same compound, in assay [1], the “Escherichia coli expressing NDM-1 (CLB 30016) MITC95” value was 2.344 µM. For the same compound, in assay [2], the “Serratia marcescens expressing IMP-1 (CL5741) MITC95” value is 6.25 µM. Also, the “Klebsiella pneumoniae expressing VIM-1 (IHMA 599644) MITC95” value in assay [3] worked out at 25 µM.
In the case of `NS(=O)(=O)c1cccc(C2CCn3cncc3C2)c1-c1nn[nH]n1` (stereo not drawn) [Example 178, 3-(5,6,7,8-tetrahydroimidazo[1,5-a]pyridin-7-yl)-2-(2H-tetrazol-5-yl)benzenesulfonamide], the half-maximal inhibitory concentration (IC50) at IMP-1 amounted to 1.02 µM; at NDM-1, 0.0284 µM; against VIM-1 (setting [5]), 0.0655 µM. In addition, the “Escherichia coli expressing NDM-1 (CLB 30016) MITC95” value in assay [1] came to 0.25 µM. The “Serratia marcescens expressing IMP-1 (CL5741) MITC95” value in assay [2] was 12.5 µM. The “Klebsiella pneumoniae expressing VIM-1 (IHMA 599644) MITC95” value in assay [3] came to 9.375 µM.
Consider `Cc1ccc(Oc2cccc(S(N)(=O)=O)c2-c2nn[nH]n2)cc1` [Example 179, 2-(2H-tetrazol-5-yl)-3-(p-tolyloxy)benzenesulfonamide], for which the concentration for half-maximal inhibition (IC50) at IMP-1 came to 0.406 µM; on NDM-1 it was 0.0108 µM; on VIM-1 (setting [4]), 1.44 µM. Also, the “Escherichia coli expressing NDM-1 (CLB 30016) MITC95” value in assay [1] came out at 3.125 µM. Moreover, the “Serratia marcescens expressing IMP-1 (CL5741) MITC95” value in assay [2] was found to be 37.5 µM. In assay [3], the “Klebsiella pneumoniae expressing VIM-1 (IHMA 599644) MITC95” value was more than 200 µM.
Turning to `Nc1nnc(C2CCN(c3ccnc(S(N)(=O)=O)c3-c3nnn[nH]3)CC2)s1` [Example 216, 4-[4-(5-amino-1,3,4-thiadiazol-2-yl)piperidin-1-yl]-3-(1H-tetrazol-5-yl)pyridine-2-sulfonamide], the IC50 was determined as 0.456 µM on IMP-1, 0.0404 µM on NDM-1 and 0.0967 µM on VIM-1 (setting [5]). Also, the “Escherichia coli expressing NDM-1 (CLB 30016) MITC95” value in assay [1] was 1.172 µM. The “Serratia marcescens expressing IMP-1 (CL5741) MITC95” value in assay [2] is 12.5 µM. Further, the “Klebsiella pneumoniae expressing VIM-1 (IHMA 599644) MITC95” value in assay [3] worked out at 18.75 µM.
Regarding `NS(=O)(=O)c1nccc(N2CCC(c3ccncc3)CC2)c1-c1nnn[nH]1` [Example 217, 4-(4-pyridin-4-ylpiperidin-1-yl)-3-(1H-tetrazol-5-yl)pyridine-2-sulfonamide], the values for the IC50 at IMP-1, on NDM-1 and at VIM-1 (setting [5]) were 0.481 µM, 0.043 µM and 0.0493 µM, respectively. In assay [1], the “Escherichia coli expressing NDM-1 (CLB 30016) MITC95” value stood at 4.688 µM. For the same compound, the “Serratia marcescens expressing IMP-1 (CL5741) MITC95” value in assay [2] turned out to be 12.5 µM. The “Klebsiella pneumoniae expressing VIM-1 (IHMA 599644) MITC95” value in assay [3] amounted to 150 µM.
For the compound `NS(=O)(=O)c1nccc(N2CCC(c3cccnc3)CC2)c1-c1nnn[nH]1` [Example 218, 4-(4-pyridin-3-ylpiperidin-1-yl)-3-(1H-tetrazol-5-yl)pyridine-2-sulfonamide], the IC50 at IMP-1 came to 0.484 µM; at NDM-1, 0.102 µM; at VIM-1 (setting [4]), 0.106 µM. Moreover, the “Escherichia coli expressing NDM-1 (CLB 30016) MITC95” value in assay [1] worked out at 12.5 µM. Also, the “Serratia marcescens expressing IMP-1 (CL5741) MITC95” value in assay [2] came to 25 µM. Besides, the “Klebsiella pneumoniae expressing VIM-1 (IHMA 599644) MITC95” value in assay [3] is 100 µM.
Regarding `CN(C)CCC1CCN(c2ccnc(S(N)(=O)=O)c2-c2nnn[nH]2)CC1` [Example 219, 4-{4-[2-(dimethylamino)ethyl]piperidin-1-yl}-3-(1H-tetrazol-5-yl)pyridine-2-sulfonamide], the results for the concentration for half-maximal inhibition (IC50) at IMP-1, on NDM-1 and at VIM-1 (setting [4]) were 10.4 µM, 1.06 µM and 0.458 µM, respectively. Moreover, in assay [1], the “Escherichia coli expressing NDM-1 (CLB 30016) MITC95” value worked out at 4.688 µM. Besides, in assay [2], the “Serratia marcescens expressing IMP-1 (CL5741) MITC95” value stood at 37.5 µM. Besides, the “Klebsiella pneumoniae expressing VIM-1 (IHMA 599644) MITC95” value in assay [3] came out at 12.5 µM.
